Among the data in ChEMBL document CHEMBL1687704, “Benzimidazole-2-pyrazole HIF Prolyl 4-Hydroxylase Inhibitors as Oral Erythropoietin Secretagogues” (ACS Med Chem Lett, 2010) are concentration values, retold here.

The nature of series [1]: Plasma concentration in Balb-C mouse at 100 umol/kg, po after 6 hrs. It is filed as ADME, organism-based.
Series [2] can be described thus: Plasma concentration in Balb-C mouse at 100 umol/kg, po after 1 hr. It is filed as ADME, organism-based.

The molecule `O=C(O)c1cnn(-c2nc3cc(C(F)(F)F)c(F)cc3[nH]2)c1` gave a concentration at 6 h in series [1] of 0.1 µM. Further, the concentration at 1 h in series [2] was 14 µM.
